Test results published in patent US12377069B2, “Compounds, compositions, methods of using, and methods for preparing compounds” (UNIVERSITY OF LOUISVILLE RESEARCH FOUNDATION, INC., priority 2018, dated 2025).

Assays:
HT29 cells = test: AhR/Cyp1A1 siRNA knockdown and Cyp1A1 CRISPR/Cas9 deletion; format: cell-based, human; conditions: 24 h; for Cldn4 or NQO1 in Cyp1A1 deleted cells: CRISPR/Cas9, 50 μM; for Cldn4 induction in AhR or Cyp1A1 knockdown cells: siRNA, 50 μM
Experimental: Small interfering RNA (siRNA) mediated knockdown experiment: The AhR siRNA (SR300136) and Cyp1A1 siRNA (SR301093) was purchased from Origene. For knockdown experiments, HT29 cells (0.5×10^6 cells/well) were plated in 6 well plate and grown for 24 hr. The AhR, Cyp1A1 and control-siRNA was transfected into HT29 cells using Lipofectamine® RNAiMAX reagent (ThermoFisher Scientific) as per instruction given. After 24 hr of transfections, cell were induced with vehicle (0.01% DMSO), UroA (50 μM) and UAS03 (50 μM) for 24 hr. After treatment with inducers, cells were lysed using RIPA buffer and total protein was used to analyse the expression of AhR, Cyp1A1 and cldn4 by western blot.
Cyp1A1 deletion by CRISPR/Cas9 method: HT29 cells (1.5×10^5) were plated in 6-well in antibiotic free standard growth medium 24 h prior to transfection. At 60% confluency cells, cell were co-transfected with 2 μg each of CRISPR/Cas9 KO Plasmid (sc-400511-KO-2; Santa cruz) and HDR Plasmid (sc-400511-HDR-2; Santa cruz) using UltraCruz® Transfection Reagent (sc-395739; Santa Cruz). Medium was replaced with selective medium (containing 4 μg/mL puromycin) 96 hr post transfection. Transfection was confirmed with fluorescence microscopy and western blot (CYP1A1). The double positive cells for GFP and RFP were sorted using MoFlo XDP sorting instrument (Beckman Coulter). The deletion of Cyp1A1 in these sorted was confirmed by Western blots. These cells were then plated in 6-well plate for in standard medium for evaluating the effect of UroA/UAS03 on Cldn4 expression. After 24 hr of UroA/UAS03 treatment cells were harvested for protein and Cldn4 expression was investigated along with normal HT29 cells.

Caco-2 monolayer cells = test: Caco2 monolayer TEER and FITC-dextran permeability (EtOH, LPS, HMGB1); format: cell-based, human; conditions: for TEER / Ocln expression: EtOH 350 mM (2%); for TEER: 10, 25, 50 μM pre-treatment 24 h; for Ocln expression: 10, 25, 50 μM, 24 h
Experimental: FIG. 13: Caco2 cells were grown as monolayer on transwell membrane filters. (A) Cells were treated with 40 mM EtOH and FITC-dextran permeability was performed in time dependent manner. (B-F) Cells were treated with respective Urolithins (50 μM) and Ellagic acid (50 μM) or different doses of UroA (B) for 24 hrs. After treatments, cells were treated with ethanol (40 mM) (B, D) or 400 mM (E, F), LPS (100 ng/mL), HMGB1 (500 ng/mL) for 2 hrs and washed with PBS. FITC-Dex (1 mg/mL) solution was added (100 μl) on apical side. Permeability of FITC-Dex across the monolayer as well as TEER values were measured after 2 hr. […] Confocal images of TJ proteins staining. Statistics performed using unpaired t-test. *p<0.05, **p<0.01, *** p<0.001, Error bars, ±SEM.
Caco2 cells on transwell membrane were pre-treated with vehicle or UroA or UAS03 (10, 25, 50 μM) for 24 h followed by addition of alcohol (2%) for 24 h. TEER values (A) and the FITC-dextran permeability assay (B) was performed as described in FIG. 2. Statistics performed using unpaired t-test using Graphpad Prism software. Error bars, ±SEM; ***p<0.001; **p<0.01. (C) Caco2 cells were treated with alcohol (EtOH) (350 mM or 2%) in the presence or with UroA or UAS03 (10, 25, 50 μM) for 24 h and determined expression of Ocln by Western blots. Representative of 3 independent blots was shown.
UroA upregulate TJ proteins and protect against EtOH induced damage. […] For this purpose, we utilized Caco-2 monolayer cells on transwell membranes and performed transepithelial electrical resistance (TEER) and FITC-dextran permeability assays. […] Gut barrier dysfunction leads to elevated intestinal permeability thus increasing circulating levels of endotoxins. Endotoxins such as LPS (representative for PAMP) and HMGB1 (representative for DAMP) induce several inflammatory cytokines, chemokines and ROS leading to further enhancement of systemic inflammation to promote pathogenesis of ALD.
We tested whether UAS03 could protect against higher dose of EtOH (350 mM) induced barrier dysfunction in Caco2 monolayer cells.

5FUR HCT116 cells = test: EMT markers in colon cancer cells (Western blot); format: cell-based; conditions: for EMT markers ZO-1, E-Cadherin, Snail, β-catenin: 5FUR HCT116, 72 h, in the presence of 5FU
Experimental: FIG. 41: Western blot analysis of EMT markers in 5FUR HCT116 cells in treated (72 h) with 5FU in the presence or absence of UroA/UAS03.
UroA/UAS03 treatment reduce epithelial-mesenchymal transitions (EMT) signature in 5FU resistant (5FU R) colon cancer cells: We examined EMT markers in 5FU sensitive (parent) and 5FU resistant (5FUR) HCT116 colon cancer cell lines. […] The reciprocal expression of these molecules are hallmarks of EMT signature. Next, we examined whether treatment with UroA/UAS03 can reverse these patterns in 5FUR cells. […] One of the mechanisms by which cancer cells acquire chemoresistant phenotype is by the induction of drug transporters such as Multidrug resistance-associated protein 2 (MRP2), ATP-binding cassette (ABC) drug efflux transporter proteins, BCRP and P-gycoprotein (P-gp).

MRP2 = MRP2 expression in 5FU-R colon cancer cells; format: cell-based; conditions: SW-5FUR colon cancer cell lines
Experimental: FIG. 43: UroA/UAS03 down regulate drug transporters. (A) Expression of MRP2 is measured by real time PCR upon treating with indicated doses of UroA or UAS03 in SW-5FUR colon cancer cell lines. (B) MRP2 activity is measured using CDCFDA (diacetate ester of 5(6)-carboxy-2′,7′-dichlorofluorescein) transporter assay in SW-FUR colon cancer cell lines upon treating with UroA/USA03.
This could result in increase in intracellular drug concentration leading to increase in cell death/decreased proliferation of drug resistant cancer cells upon treatment with 5FU and UroA/UAS03.

## O=c1oc2cc(O)ccc2c2ccc(O)cc12 [UroA, 3,8-dihydroxy-6H-dibenzo[b,d]pyran-6-one]
HT29 cells
  Cldn4 or NQO1 in Cyp1A1 deleted cells: did not appear to upregulate
  Cldn4 induction in AhR or Cyp1A1 knockdown cells: does not appear to induce Cldn4
Caco-2 monolayer cells
  TEER: increased TEER
  Ocln expression: increased TJ protein
Caco-2 monolayer cells; EtOH 400 mM
  TEER values: enhanced TEER values
Caco-2 monolayer cells; Western blots, confocal images
  EtOH induced damage of tight junction proteins (ZO-1, Ocln): protects against EtOH induced damage of tight junction proteins
5FUR HCT116 cells
  EMT markers ZO-1, E-Cadherin, Snail, β-catenin: upregulated ZO-1, E-Cadherin, and down regulated Snail and β-catenin
5FUR HCT116 cells; colon cancer cell lines
  expression of E-cadherin: enhanced the expression of E-cadherin
MRP2
  expression of drug transporters (MRP2): reduce the expression

## Oc1ccc2c(c1)COc1cc(O)ccc1-2 [UAS03, 6H-benzo[c]chromene-3,8-diol]
HT29 cells
  Cldn4 or NQO1 in Cyp1A1 deleted cells: did not appear to upregulate
  Cldn4 induction in AhR or Cyp1A1 knockdown cells: does not appear to induce Cldn4
Caco-2 monolayer cells
  TEER: increased TEER
  Ocln expression: increased TJ protein
5FUR HCT116 cells
  EMT markers ZO-1, E-Cadherin, Snail, β-catenin: upregulated ZO-1, E-Cadherin, and down regulated Snail and β-catenin
MRP2
  expression of drug transporters (MRP2): reduce the expression
